Experimental data taken from article PMC10321483 (Chemical Science, 2023).

Biological target: T1, LdtMt2-ebselen complex (Mycobacterium tuberculosis, UniProt I6Y9J2)
T1 construct: made in house; host or cells: E. coli
Experiment: SPE-MS active-site selectivity assay with ebselen-preincubated LdtMt2
Assay type: binding
Conditions: inhibitor 100 µM, 24 h
Procedure: LdtMt2 contains only a single cysteine residue (Cys354). However, as several identified electrophiles are able to react with residues other than cysteine,[30,31] it was assessed whether covalent modification of LdtMt2 by the inhibitors is related to reaction with Cys354. […] Apparently complete LdtMt2 modification by a single molecule of ebselen (+274 Da) was observed. Inhibitors 1–21 were then added to the ebselen derived LdtMt2 complex (Fig. S11 ^†).
Figure S11. Protein observed SPE-MS based active -site selectivity assay s. LdtMt2 (1 µM) was 153 preincubated with ebselen (10 µM, a known Ldt Mt2 inhibitor3, which reacts with the nucleophilic 154 Cys354) for 1 h in 50 mM Tris, pH 7.5 , prior to addition of inhibitors 1-15 (100 µM). Samples were 155 analysed after an additional 24 h incubation at room temperature. The spectrum in blue corresponds 156 to LdtMt2 reacted with ebselen. The spectrum in green corresponds to LdtMt2 reacted with the specified 157 inhibitor, following preincubation with ebselen. The spectrum in purple corresponds to LdtMt2 reacted 158 with the specified inhibitor. Deconvoluted spectra, obtained using the maximum entropy algorithm in 159 the MassHunter Workstation Qualitative Analysis B.07.00 program (Agilent), are shown. 160
(1 picture or pasted object on this page, not shown here)

T1 sequence (I6Y9J2 56-408, one chain of several): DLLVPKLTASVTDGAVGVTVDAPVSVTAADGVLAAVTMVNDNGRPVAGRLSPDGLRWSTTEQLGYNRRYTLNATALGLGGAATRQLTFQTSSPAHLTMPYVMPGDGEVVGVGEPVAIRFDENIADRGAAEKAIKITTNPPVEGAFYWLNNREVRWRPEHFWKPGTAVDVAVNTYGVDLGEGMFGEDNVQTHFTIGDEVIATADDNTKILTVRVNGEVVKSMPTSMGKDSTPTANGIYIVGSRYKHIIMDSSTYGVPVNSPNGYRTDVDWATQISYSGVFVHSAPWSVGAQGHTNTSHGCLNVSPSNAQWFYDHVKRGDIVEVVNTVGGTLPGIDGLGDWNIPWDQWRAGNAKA

Row | SMILES | reaction with the LdtMt2-ebselen complex (Cys354 unavailable)
1 | CC(C)(C)OC(=O)Nc1ccc(N2C(=O)C=CC2=O)cc1 [Compound 6] | observed to react with the LdtMt2-ebselen complex
2 | CCOc1ccc(CN2C(=O)C(=O)c3cc(Br)cc(C)c32)cc1OC [Compound 16] | observed to react with the LdtMt2-ebselen complex
3 | COc1ccc(CN2C(=O)C(=O)c3cc(Br)cc(C)c32)cc1OC [Compound 17] | observed to react with the LdtMt2-ebselen complex
